# Read-outs that look alike come from different tables or passages of the source.
# Key:
# KB-3-1 cells = test: MTT viability assay, KB-3-1; type: cell-based; details: Homo sapiens, KB 3-1, 72 h, MTT 72 h
# From the text: (§1) MDCK II canine kidney cells, A431 epidermoid carcinoma cells, the human uterine sarcoma cell lines MES-SA and the doxorubicin selected MES-SA-Dx5 were obtained from ATCC (MDCK II: No. CRL-2936™, A431: No. CRL-1555™, MES-SA: No. CRL-1976™, MES-SA/Dx5: No. CRL-1977™). ABCB1 was expressed in A431 and MES-SA cells using lentiviral transduction. The human cervix carcinoma cell line KB-3-1 and the vinblastine selected KB-v1were kind gifts from Dr. Michael M. Gottesman, National Institutes of Health. The phenotype of the resistant cells was verified using cytotoxicity assays. MDCK-B1 and MDCK-MM were established by the Sleeping Beauty transposon-based gene delivery system. OVCAR-8 and NCI-ADRres cells (obtained from the Division of Cancer Treatment and Diagnosis (DCTD) Tumor Repository (National Cancer Institute, Frederick, MD, USA)) were cultivated in RPMI-1640 (Sigma Aldrich, Budapest, Hungary), and other cell lines were cultivated in Dulbecco’s Modified Eagle Medium (DMEM, Sigma Aldrich, Budapest, Hungary), supplemented with 10% fetal bovine serum, 5 mM glutamine, and 50 unit/mL penicillin and streptomycin (Life Technologies, Carlsbad, CA, USA). All cell lines were cultivated at 37 °C, 5% CO2.
# (§2) MTT viability assays were performed as described earlier with minor modifications. Briefly, cells were seeded into 96-well tissue culture plates (Sarstedt, Newton, NC, USA/Orange, Braine-l’Alleud, Belgium) at a density of 5000 cells/well and allowed to attach overnight. Test compounds were added to achieve the required final concentration in a final volume of 100 µL per well. After an incubation period of 72 h, the supernatant was removed and fresh medium containing the MTT reagent (0.083 mg/mL) was added. Incubation with MTT at 37 °C was terminated after 1 h by removing the supernatant and lysing the cells with 100 µL DMSO per well. Viability of the cells was measured spectrophotometrically based on the absorbance values at 540 nm using either a Perkin Elmer Victor X3 or an EnSpire microplate reader. Data were background corrected by subtraction of the signal obtained from unstained cell lysates and normalized to untreated cells. Curves were fitted by Prism software (GraphPad Software Inc., San Diego, CA, USA) using the sigmoidal dose-response model (comparing variable and fixed slopes). […] Significance was calculated using unpaired t-tests; results are given as *: p ≤ 0.05, **: p ≤ 0.01, ***: p ≤ 0.001, ****: p ≤ 0.0001.
# MES-SA cells [1] = test: MTT viability assay, MES-SA; type: cell-based, human; details: for IC50: Homo sapiens, MES-SA
# From the text: as §1, §2
# A431-B1 cells = test: MTT viability assay, A431-B1; type: cell-based; details: for IC50: 72 h, MTT 72 h
# From the text: as §1, §2
# MDCK-MM cells = test: MTT viability assay, MDCK-MM (non-functional Pgp); type: cell-based, canine; details: for IC50: Canis lupus familiaris, 72 h, MTT 72 h; for SR MDCK-MM: IC50 MDCK vs. MDCK-MM
# From the text: as §1, §2
# MES-SA/B1 cells = test: MTT viability assay, MES-SA/B1; type: cell-based, human; details: for IC50: Homo sapiens, MES-SA, 72 h, MTT 72 h
# From the text: as §1, §2
# MES-SA/Dx5 cells = test: MTT viability assay, MES-SA/Dx5; type: cell-based, human
# From the text: as §1, §2
# NCI-ADRres cells = test: MTT viability assay, NCI-ADRres; type: cell-based; details: for IC50: Homo sapiens, NCI/ADR-RES, 72 h, MTT 72 h; for SR NCI-ADRres: IC50 OVCAR-8 vs. NCI-ADRres
# From the text: as §1, §2
# MDCK-B1 cells = test: MTT viability assay, MDCK-B1 (wild-type Pgp); type: cell-based, canine; details: for IC50: Canis lupus familiaris, 72 h, MTT 72 h
# From the text: as §1, §2
# MES-SA cells [2] = test: ROS determination with DCFDA, MES-SA; type: cell-based, human; details: 2 h
# Method: Measurements were performed as described earlier. Briefly, cells were harvested, washed with PBS, and incubated with 10 µM DCFDA in a water bath shaker at 37 °C for 30 min in a density of 3 × 10^6 cells/mL. After washing with PBS, cells were seeded to 96-well plates in PBS in a density of 2 × 10^4 cells/well. Following the measurement of the basal fluorescence, test compounds were added in different concentrations and the fluorescence of the samples was followed at time intervals of 10 min. DCFDA solution in buffer was used as a cell free control to test for interaction of the test compounds with DCFDA. Data were analyzed as fold change of fluorescence compared to basal levels and untreated cells. Significance was calculated using unpaired t-tests; results are given as *: p ≤ 0.05, **: p ≤ 0.01, ***: p ≤ 0.001, ****: p ≤ 0.0001.
# Table S3: Characterization of intracellular ROS production with the DCFDA assay for P -gp negative MES-SA and P-gp positive MES-SA/Dx5 cells. Fold changes in fluorescence are shown after a 2 h with the investigated 8 -hydroxyquinoline ligands. Data S-refer to Figure 7 and allow […]
# concentration range from 6.25µ M to 50µ M. Fold change of fluorescence obtained in the presence of 5 mM NAC is given in brackets.
# MDCK cells = test: MTT viability assay, MDCK; type: cell-based, canine; details: Canis lupus familiaris, 72 h, MTT 72 h
# From the text: as §1, §2
# OVCAR-8 cells = test: MTT viability assay, OVCAR-8; type: cell-based; details: Homo sapiens, OVCAR-8, 72 h, MTT 72 h
# From the text: as §1, §2
# [3] = presence of 1 µM Tariquidar (values in brackets)
# [4] = presence of 1 µM Tariquidar (brackets)
structure (smiles),measurement,setting,value
"Oc1cccc2cccnc12 [Compound Q-1, 8-Hydroxyquinoline]",IC50,KB-3-1 cells; absence of Tariquidar,8.59 ± 2.92 µM
same,IC50,KB-3-1 cells; [3],10.9 µM
same,IC50,"MES-SA cells [1]; MTT 72 h, absence of Tariquidar, read-out: IC50 MES-SA",4.19 ± 0.74 µM
same,IC50,"MES-SA cells [1]; Table 2, value outside brackets, read-out: MES-SA (toxicity, Table 2)",4.19 ± 0.74 µM
same,Effect of co-administration of CuCl2 on toxicity,"MES-SA cells [1]; parental MES-SA, increasing concentrations of CuCl2, MTT 72 h (Figure 2I-L)",increased the toxicity
same,IC50,A431-B1 cells; absence of Tariquidar,8.21 ± 4.04 µM
same,IC50,A431-B1 cells; [3],7.06 µM
same,SR A431-B1,"A431-B1 cells; IC50 A431 vs. A431-B1, absence of Tariquidar",0.31
same,SR A431-B1,"A431-B1 cells; IC50 A431 vs. A431-B1, presence of 1 µM Tariquidar (brackets)",0.41
same,IC50,MDCK-MM cells; absence of Tariquidar,3.34 ± 0.6 µM
same,IC50,MDCK-MM cells; [3],3.59 µM
same,SR MDCK-MM,MDCK-MM cells; absence of Tariquidar,0.97
same,SR MDCK-MM,MDCK-MM cells; [4],0.86
same,IC50,MES-SA/B1 cells; absence of Tariquidar,3.68 ± 0.95 µM
same,IC50,MES-SA/B1 cells; [3],4.92 µM
same,SR MES-SA/B1,"MES-SA/B1 cells; IC50 MES-SA vs. MES-SA/B1, absence of Tariquidar",1.14
same,SR MES-SA/B1,"MES-SA/B1 cells; IC50 MES-SA vs. MES-SA/B1, presence of 1 µM Tariquidar (brackets)",1.03
same,IC50,"MES-SA/Dx5 cells; Homo sapiens, MES-SA/Dx5, Table S1, calculated as ligand equivalents, absence of TQ, read-out: IC50 Dx5",2.46 ± 0.69 µM
same,SR MES-SA/Dx5,"MES-SA/Dx5 cells; IC50 MES-SA vs. MES-SA/Dx5, absence of Tariquidar",1.70
same,SR MES-SA/Dx5,"MES-SA/Dx5 cells; IC50 MES-SA vs. MES-SA/Dx5, presence of 1 µM Tariquidar (brackets)",1.73
same,Effect of co-administration of CuCl2 on toxicity,"MES-SA/Dx5 cells; MDR MES-SA/Dx5, increasing concentrations of CuCl2, MTT 72 h (Figure 2I-L)",increased the toxicity
same,Effect of co-incubation with iron(III) on cytotoxicity,"MES-SA/Dx5 cells; MES-SA/Dx5, increasing concentrations of FeCl3, MTT 72 h (Figure 2A-D)",did not influence the cytotoxicity
same,SR MES-SA/Dx5 (Table 2),"MES-SA/Dx5 cells; Table 2, value in brackets (Tariquidar as in Table 1)",1.73
same,SR MES-SA/Dx5 (Table 2),"MES-SA/Dx5 cells; Table 2, value outside brackets",1.70
same,SR,"MES-SA/Dx5 cells; Table S1, IC50 Pgp negative divided by Pgp positive cells, absence of TQ",1.70
same,SR_TQ,"MES-SA/Dx5 cells; Table S1, presence of 1 µM TQ",1.73
same,IC50,NCI-ADRres cells; absence of Tariquidar,1.84 ± 0.3 µM
same,IC50,NCI-ADRres cells; [3],2.65 µM
same,SR NCI-ADRres,NCI-ADRres cells; absence of Tariquidar,1.88
same,SR NCI-ADRres,NCI-ADRres cells; [4],1.29
same,IC50,MDCK-B1 cells; absence of Tariquidar,4.58 ± 1.75 µM
same,IC50,MDCK-B1 cells; [3],15.2 µM
same,SR MDCK-B1,"MDCK-B1 cells; IC50 MDCK vs. MDCK-B1, absence of Tariquidar",0.71
same,SR MDCK-B1,"MDCK-B1 cells; IC50 MDCK vs. MDCK-B1, presence of 1 µM Tariquidar (brackets)",0.20
same,Fold change in fluorescence (DCFDA),MES-SA cells [2]; 6.25 µM,0.965± 0.12
same,Fold change in fluorescence (DCFDA),"MES-SA cells [2]; 6.25 µM, presence of 5 mM NAC (brackets)",1.261± 0.26
same,Fold change in fluorescence (DCFDA),MES-SA cells [2]; 12.5 µM,0.799± 0.12
same,Fold change in fluorescence (DCFDA),"MES-SA cells [2]; 12.5 µM, presence of 5 mM NAC (brackets)",1.148± 0.32
same,Fold change in fluorescence (DCFDA),MES-SA cells [2]; 25 µM,0.722± 0.22
same,Fold change in fluorescence (DCFDA),"MES-SA cells [2]; 25 µM, presence of 5 mM NAC (brackets)",1.193± 0.44
same,Fold change in fluorescence (DCFDA),MES-SA cells [2]; 50 µM,0.748± 0.21
same,Fold change in fluorescence (DCFDA),"MES-SA cells [2]; 50 µM, presence of 5 mM NAC (brackets)",0.912± 0.38
same,IC50,MDCK cells; absence of Tariquidar,3.27 ± 1.24 µM
same,IC50,MDCK cells; [3],3.08 µM
same,IC50,OVCAR-8 cells; absence of Tariquidar,3.45 ± 0.13 µM
same,IC50,OVCAR-8 cells; [3],3.43 µM

# Reference: publication PMC7796460, “Relation of Metal-Binding Property and Selective Toxicity of 8-Hydroxyquinoline Derived Mannich Bases Targeting Multidrug Resistant Cancer Cells” (Cancers, 2021)
